Columns and labels:
[1] = Thermal stability, TG/DTA measurement; conditions: for thermal stability higher compared to Z-DOL (Comparative Example 10C) / thermal stability higher compared to Z-TETRAOL (Comparative Example 11C): difference of weight reduction temperatures; for Weight reduction temperature 5% / Weight reduction temperature 10% / Weight reduction temperature 20%: air 200 mL/min, 30° C. to 600° C., heating rate 10° C./min
[2] = in acetonitrile; cited from earlier work
[3] = Solubility to fluorine-based solvent (Vertrel XF), 1.0/0.5/0.1 parts by mass added; conditions: Vertrel XF [CF3(CHF)2CF2CF3], 25° C., ultrasonic waves 5 minutes, left 1 day, visual observation; 0.5 and 0.1 parts by mass per 100 parts
Experimental: Then, the resultant was left to stand for 1 day and solubility thereof was visually observed.
Then, the resultant was left to stand for 1 day and solubility thereof was visually observed, followed by evaluation based on the following evaluation criteria.
[Evaluation Criteria] • 0.5% by mass or more:
When 0.5 parts by mass of the ionic liquid was added, dissolution was found. • 0.1% by mass or more but less than 0.5% by mass:
When 0.5 parts by mass of the ionic liquid was added, no dissolution was found. However, when 0.1 parts by mass of the ionic liquid was added, dissolution was found. • Less than 0.1% by mass:
When 0.5 parts by mass of the ionic liquid was added, no dissolution was found. Moreover, when 0.1 parts by mass of the ionic liquid was added, no dissolution was found.

[4] = Solubility to solvents (Vertrel XF, n-hexane, ethanol); type: physicochemical; conditions: 25° C., visual observation after 1 day; for Solubility Fluorine-based solvent: Vertrel XF, 0.2 parts by mass per 100 parts; for Solubility Ethanol / Solubility n-Hexane: 0.5 parts by mass per 100 parts
Experimental: To a predetermined mass of Vertrel XF, n-hexane, or ethanol, each of the ionic liquids was added and was irradiated with ultrasonic waves for 5 minutes. Then, the resultant was left to stand for 1 day and solubility thereof was visually observed.
Specifically, to 100 parts by mass of Vertrel XF (25° C.), 0.2 parts by mass of the ionic liquid was added and was irradiated with ultrasonic waves for 5 minutes. Then, the resultant was left to stand for 1 day and solubility thereof was visually observed, followed by evaluation based on the following evaluation criteria. In the cases of n-hexane and ethanol, each of the ionic liquids (0.5 parts by mass) was added to 100 parts by mass of n-hexane or ethanol at 25° C. The resultant was irradiated with ultrasonic waves for 5 minutes. Then, the resultant was left to stand for 1 day and solubility thereof was visually observed, followed by evaluation based on the following evaluation criteria.
<<Vertrel XF>> • 0.2% by mass or more:
When 0.2 parts by mass of the ionic liquid was added, dissolution was found. • Less than 0.2% by mass:
When 0.2 parts by mass of the ionic liquid was added, no dissolution was found.
<<n-Hexane and Ethanol>> • 0.5% by mass or more:
When 0.5 parts by mass of the ionic liquid was added, dissolution was found. • Less than 0.5% by mass:

| Compound | Weight reduction temperature 5% [1] [°C] | Weight reduction temperature 10% [1] [°C] | Weight reduction temperature 20% [1] [°C] | also measured |
| --- | --- | --- | --- | --- |
| CCCCCCCCCCCCCCCCCC[n+]1ccn(CCCO)c1CCCCCCCCCCCCCCCCC.O=S(=O)([N-]S(=O)(=O)C(F)(F)C(F)(F)C(F)(F)C(F)(F)F)C(F)(F)C(F)(F)C(F)(F)C(F)(F)F | – | – | – | thermal stability higher compared to Z-DOL (Comparative Example 10C) [1]: ≥ 160 °C; thermal stability higher compared to Z-TETRAOL (Comparative Example 11C) [1]: ≥ 85 °C |
| CCCCCCCCCCCCCC[N+](C)(C)CCCO.O=S(=O)([N-]S(=O)(=O)C(F)(F)C(F)(F)C(F)(F)C(F)(F)F)C(F)(F)C(F)(F)C(F)(F)C(F)(F)F | – | – | – | thermal stability higher compared to Z-DOL (Comparative Example 10C) [1]: ≥ 145 °C; thermal stability higher compared to Z-TETRAOL (Comparative Example 11C) [1]: ≥ 90 °C |
| CCCCCCCCCCCCCCCCCC[N+](C)(C)CCCO.O=S(=O)([N-]S(=O)(=O)C(F)(F)C(F)(F)C(F)(F)C(F)(F)F)C(F)(F)C(F)(F)C(F)(F)C(F)(F)F | – | – | – | thermal stability higher compared to Z-DOL (Comparative Example 10C) [1]: ≥ 150 °C; thermal stability higher compared to Z-TETRAOL (Comparative Example 11C) [1]: ≥ 90 °C |
| CCCCCCCCCCCCCCCCCC[N+]1(CCCO)CCCC1.O=S(=O)([N-]S(=O)(=O)C(F)(F)C(F)(F)C(F)(F)C(F)(F)F)C(F)(F)C(F)(F)C(F)(F)C(F)(F)F | – | – | – | thermal stability higher compared to Z-DOL (Comparative Example 10C) [1]: ≥ 160 °C; thermal stability higher compared to Z-TETRAOL (Comparative Example 11C) [1]: ≥ 100 °C |
| CCCCCCCCCCCCCCCCCC[n+]1ccn(CCCO)c1.O=S(=O)([N-]S(=O)(=O)C(F)(F)C(F)(F)C(F)(F)C(F)(F)F)C(F)(F)C(F)(F)C(F)(F)C(F)(F)F | – | – | – | thermal stability higher compared to Z-DOL (Comparative Example 10C) [1]: ≥ 150 °C; thermal stability higher compared to Z-TETRAOL (Comparative Example 11C) [1]: ≥ 90 °C |
| O=S(=O)(C(S(=O)(=O)C(F)(F)F)S(=O)(=O)C(F)(F)F)C(F)(F)F [(CF3SO2)3CH] | – | – | – | pKa [2]: −3.7 |
| CCCCCCCCCCCCCCCCCC[n+]1ccn(CCCC)c1.O=S1(=O)[N-]S(=O)(=O)C(F)(F)C(F)(F)C1(F)F [Comparative Example 2A, hexafluorocyclopropane-1,3-bis(sulfonyl)imide-1-butyl-3-n-octadecylimidazolium, reference compound] | 347.2 | 367.0 | 387.8 | Fluorine-based solvent solubility [3]: Less than 0.1% by % by mass |
| CCCCCCCCCCCCCCCCCCC1CCCCN2CCCN=C12.O=S1(=O)NS(=O)(=O)C(F)(F)C(F)(F)C1(F)F (stereo not drawn) [Comparative Example 4A, hexafluorocyclopropane-1,3-bis(sulfonyl)imide-6-octadecyl-1,8-diazabicyclo[5.4.0]-7-undecenium, reference compound] | 346.3 | 384.1 | 414.0 | Fluorine-based solvent solubility [3]: Less than 0.1% by % by mass |
| CCCCCCCCCCCCCCCCCCn1ccnc1CCCCCCCCCCCCCCCCC.O=S1(=O)NS(=O)(=O)C(F)(F)C(F)(F)C1(F)F [Comparative Example 7A, hexafluorocyclopropane-1,3-bis(sulfonyl)imide-1-octadecyl-2-heptadecylimidazolium, reference compound] | 303.7 | 366.4 | 405.0 | Solubility Fluorine-based solvent [4]: Less than 0.2% by mass; Solubility Ethanol [4]: ≥ 0.5% by mass; Solubility n-Hexane [4]: < 0.5% by mass |
| CCCCCCCCCCCCCCCCCCN.O=S(=O)(NS(=O)(=O)C(F)(F)C(F)(F)C(F)(F)C(F)(F)F)C(F)(F)C(F)(F)C(F)(F)C(F)(F)F [Comparative Example 8A, bis(nonafluorobutanesulfonyl)imide-octadecylammonium, reference compound] | 311.8 | 329.8 | 348.0 | Solubility Fluorine-based solvent [4]: Less than 0.2% by mass; Solubility Ethanol [4]: ≥ 0.5% by mass; Solubility n-Hexane [4]: < 0.5% by mass |
| CCCCCCCCCCCCCCCCCC[n+]1ccn(CCCO)c1.O=S(=O)([N-]S(=O)(=O)C(F)(F)C(F)(F)C(F)(F)C(F)(F)F)C(F)(F)C(F)(F)C(F)(F)C(F)(F)F [Example 2A, bis(nonafluorobutanesulfonyl)imide1-3′hydroxypropyl-3-octadecylimidazolium] | 327.7 | 361.7 | 389.3 | – |
| CCCCCCCCCCCCCCCCCC[N+]1(CCCO)CCCC1.O=S(=O)([N-]S(=O)(=O)C(F)(F)C(F)(F)C(F)(F)C(F)(F)F)C(F)(F)C(F)(F)C(F)(F)C(F)(F)F [Example 3A, bis(nonafluorobutanesulfonyl)imide-N-3′hydroxypropyl-N-octadecylpyrrolidinium] | 349.8 | 370.8 | 387.6 | – |
| CCCCCCCCCCCCCCCCCCC1CCCCN2CCC[N+](CCCO)=C12.O=S(=O)([N-]S(=O)(=O)C(F)(F)C(F)(F)C(F)(F)C(F)(F)F)C(F)(F)C(F)(F)C(F)(F)C(F)(F)F (stereo not drawn) [Example 5A, bis(nonafluorobutanesulfonyl)imide-6-octadecyl-8-3′-hydroxypropyl-1,8-diazabicyclo[5.4 0.0]-7-undecenium] | 326.2 | 360.8 | 387.7 | thermal stability higher compared to Z-DOL (Comparative Example 10C) [1]: ≥ 160 °C; thermal stability higher compared to Z-TETRAOL (Comparative Example 11C) [1]: ≥ 85 °C |
| CCCCCCCCCCCCCCCCCC[n+]1ccn(CCCO)c1CCCCCCCCCCCCCCCCC.O=S(=O)([N-]S(=O)(=O)C(F)(F)C(F)(F)C(F)(F)C(F)(F)F)C(F)(F)C(F)(F)C(F)(F)C(F)(F)F [Example 8A, bis(nonafluorobutanesulfonyl)imide-1-3′hydroxypropyl-2-heptadecyl-3-octadecylimidazolium] | 327.8 | 364.3 | 398.8 | – |
| CCCCCCCCCCCCCC[N+](C)(C)CCCO.O=S(=O)([N-]S(=O)(=O)C(F)(F)C(F)(F)C(F)(F)C(F)(F)F)C(F)(F)C(F)(F)C(F)(F)C(F)(F)F [Example 9A, bis(nonafluorobutanesulfonyl)imide-N-3′hydroxypropyl-N,N-dimethyltetradecylammonium] | 340.0 | 359.0 | 375.0 | – |
| CCCCCCCCCCCCCCCCCC[N+](C)(C)CCCO.O=S(=O)([N-]S(=O)(=O)C(F)(F)C(F)(F)C(F)(F)C(F)(F)F)C(F)(F)C(F)(F)C(F)(F)C(F)(F)F [Example 10A, bis(nonafluorobutanesulfonyl)imide-N-3′hydroxypropyl-N,N-dimethyloctadecylammonium] | 336.5 | 359.4 | 376.6 | – |
| O=S(=O)(NS(=O)(=O)C(F)(F)C(F)(F)C(F)(F)C(F)(F)F)C(F)(F)C(F)(F)C(F)(F)C(F)(F)F [bis(nonafluorobutanesulfonyl)imide] | – | – | – | pKa [2]: 0.0 |
| O=S1(=O)NS(=O)(=O)C(F)(F)C(F)(F)C1(F)F [hexafluorocyclopropane-1,3-bis(sulfonyl)imide] | – | – | – | pKa [2]: −0.8 |
| F[B-](F)(F)F.[H+] [tetrafluoroboric acid] | – | – | – | pKa [2]: 1.8 |
| bis(nonafluorobutanesulfonyl)imide-1-dodecyl-2-undecyl-3-3′hydroxypropyloctadecylimidazolium [Example 7A] | 350.9 | 373.7 | 394.8 | – |
| heptadecafluorooctanesulfonic acid-6-octadecyl-1,8-diazabicyclo[5.4.0]-7-undecenium | 361.9 | 382.7 | 403.5 | – |
| heptadecafluorooctanesulfonic acid-6-octadecyl-1,8-diazabicyclo[5.4.0]-7-undecenium [Comparative Example 3A] | – | – | – | Fluorine-based solvent solubility [3]: Less than 0.1% by % by mass |
| nonafluorobutanesulfonic acid-1-octadecyl-2-heptadecylimidazolium | 338.2 | 365.9 | 390.1 | – |
| nonafluorobutanesulfonic acid-1-octadecylimidazolium | 349.3 | 375.0 | 397.5 | – |
| nonafluorobutanesulfonic acid-N,N,N-trimethyloctadecylammonium [Comparative Example 9A, reference compound] | 340.5 | 356.2 | 371.9 | – |
| pentadecafluorooctanoic acid octadecylammonium [Comparative Example 5A, reference compound] | 206.9 | 215.8 | 223.4 | Fluorine-based solvent solubility [3]: Less than 0.1% by % by mass |
| pentadecafluorooctanoic acid octadecylammonium [pentadecafluorooctanoic acid octadecylammonium] | 206.9 | 215.8 | 223.4 | – |
| perfluorocyclopropane sulfoimide | – | – | – | pKa [2]: −0.8 |

— US20190051326A1, “Ionic Liquid, Lubricant, and Magnetic Recording Medium” (priority 2016, published 2019)
